Read-outs that look alike come from different tables or passages of the source.
Key:
Format in all cases: cell-based
Conditions in all cases: for MIC: Escherichia coli
[1] = test system: Escherichia coli 285 (AB1157, CIPR, overexpresses efflux); assay: microbe, parasite or virus in culture
Description: (§1) • Strains and Reagents. The following strains were obtained from the Keio collection (Baba, et al.: Construction of Escherichia coli K-12 in-frame, single-gene knockout mutants: the Keio collection. In Mol Syst Biol, vol. 2, pp. 2006 0008, (2006)): JW0451 (ΔacrB::kan), JW5503 (ΔtolC::kan), JW3234 (ΔacrF::kan), JW2661 (ΔemrB::kan), JW0863 (ΔmacB::kan). The deletion mutations in each of these strains were transferred to AB1157 using P1 phage transduction (see Table 1). The construction of the E. coli cell-based reporter strain (SOS-XXX) that was used for high throughput screening is described in detail in the supplementary information. […] Irgasan was a generous gift from Ciba Speciality Chemicals, Inc. (High Point, N.C.). Hoechst 33342 (H33342) was purchased from Molecular Probes (Eugene, Oreg.). […] Luria Broth (Miller) and agar were purchased as prepared dehydrated media from Becton Dickenson (Franklin Lakes, N.J.). The compound libraries used in high-throughput screens were purchased from Chembridge (San Diego, Calif.), ChemDiv (San Diego, Calif.), and TimTec (Newark, Del.). MBX2319 was synthesized by Microbiotix, Inc. • Antibacterial Activity Assays. The minimal inhibitory concentration (MIC) of antibacterial agents and biocides were determined using the microbroth dilution method essentially as described in the CLSI protocol M7-A7 (CLSI: Method for dilution antimicrobial susceptibility testing for bacteria that grow aerobically; Approved standard-document M7-A7. In Clinical and Laboratory Standards Institute document M7-A7, Clinical and Laboratory Standards Institute, Wayne, Pa., (2006)), with the following exceptions. LB media was used instead of MHB. […] The final concentration of DMSO in each assay was 2%. […] MIC assays were performed in triplicate and the geometric mean was calculated. Checkerboard MIC assays using an EPI and an antibacterial agent were performed essentially as described (Pillai, et al.: Antimicrobial Combinations. In Antibiotics in Laboratory Medicine, ed. by V. Lorian, pp. 365-440, Lippincott Williams & Wilkins, Philadelphia, Pa., (2005)), with the same modifications used for the MIC assays described above. • Time-Kill Assays. Killing curve assays were performed essentially as described (Pillai, et al.: Antimicrobial Combinations. In Antibiotics in Laboratory Medicine, ed. by V. Lorian, pp. 365-440, Lippincott Williams & Wilkins, Philadelphia, Pa., (2005)). Exponential bacterial cultures grown in LB were diluted to a cell density of ˜1×10^7 in LB followed by addition of CIP and/or an EPI. Viability was monitored over 2-4 hours by making serial dilutions in saline and spotting 5 μl of each dilution onto the surface of an LB agar plate in triplicate. Colonies were counted after the plates were incubated at 37° C. for 16-18 hr, colony forming units (CFU) per ml were calculated, and the average and standard deviation for the three replicates was determined. For treatments that decreased CFU/ml below the limit of detection for the spot plating method, the 100 μl samples were diluted into 5 ml LB top agar, were poured onto LB agar plates, and incubated for 18 hr at 37° C. To calculate the fraction of the control for each sample, the average CFU/ml values for treated samples were divided by those from the same sample at 0 h (time=0). Each experiment was repeated at least three times, and a representative experiment is shown. • H33342 Accumulation Assay. The rate of accumulation of the fluorescent dye Hoechst 33342 (H33342), which is a substrate of a wide variety of bacterial efflux pumps (van den Berg van Saparoea, et al., Biochemistry, vol. 44, pp. 16931-16938, (2005)), can be used to estimate the activity of the major efflux pumps in E. coli and many other bacterial species. The H33342 accumulation assay was used to evaluate the effect of EPIs on the activity of the AcrAB-TolC efflux pump in several bacterial species essentially as described (Coldham, et al., J Antimicrob Chemother, vol. 65, pp. 1655-1663, (2010)). […]

[2] = test system: Escherichia coli 287 (AB1157, CIPR, overexpresses efflux); assay: microbe, parasite or virus in culture
Description: as §1

[3] = test system: Escherichia coli AB1157 (WT); assay: Checkerboard MIC assay (antibacterial agent + MBX2319)
Description: as §1

[4] = test system: Escherichia coli AB1157 ΔacrB; assay: as above
Description: as §1

[5] = test system: Escherichia coli AB1157 ΔacrF; assay: as above
Description: as §1

[6] = test system: Escherichia coli AB1157 ΔtolC; assay: as above
Description: as §1

[7] = read-out: MIC (μg/ml) with MBX2319 at concn (μM) of: 0

## CCN1CCN(C(=O)N[C@@H](C(=O)N[C@@H]2C(=O)N3[C@@H]2SC(C)(C)[C@@H]3C(=O)O)c2ccccc2)C(=O)C1=O [Piperacillin, piperacillin]
[1]; 285, MBX2319 1.56 μM
  MIC (μg/ml) with MBX2319 at concn (μM) of: 1.56: 4 µg/mL
[1]; 285, MBX2319 3.13 μM
  MIC (μg/ml) with MBX2319 at concn (μM) of: 3.13: 2 µg/mL
[1]; 285, MBX2319 6.25 μM
  MIC (μg/ml) with MBX2319 at concn (μM) of: 6.25: 2 µg/mL
[1]; 285, MBX2319 25 μM
  MIC (μg/ml) with MBX2319 at concn (μM) of: 25: 2 µg/mL
[1]; 285, MBX2319 50 μM
  MIC (μg/ml) with MBX2319 at concn (μM) of: 50: 2 µg/mL
[1]; 285, MBX2319 […]
  MIC (μg/ml) with MBX2319 at concn (μM) of: 12.5: 2 µg/mL
[1]; 285, MIC (WT)/MIC (mutant) in the absence of EPI
  MIC ratios mutant: 0.5
[1]; 285, highest ratio of MIC (no compound)/MIC (MBX2319)
  MIC ratios 2319: 4
[1]; [7]
  MIC: 8 µg/mL
[2]; 287, MBX2319 1.56 μM
  MIC (μg/ml) with MBX2319 at concn (μM) of: 1.56: 8 µg/mL
[2]; 287, MBX2319 3.13 μM
  MIC (μg/ml) with MBX2319 at concn (μM) of: 3.13: 4 µg/mL
[2]; 287, MBX2319 6.25 μM
  MIC (μg/ml) with MBX2319 at concn (μM) of: 6.25: 4 µg/mL
[2]; 287, MBX2319 25 μM
  MIC (μg/ml) with MBX2319 at concn (μM) of: 25: 2 µg/mL
[2]; 287, MBX2319 50 μM
  MIC (μg/ml) with MBX2319 at concn (μM) of: 50: 2 µg/mL
[2]; 287, MBX2319 […]
  MIC (μg/ml) with MBX2319 at concn (μM) of: 12.5: 2 µg/mL
[2]; 287, MIC (WT)/MIC (mutant) in the absence of EPI
  MIC ratios mutant: 0.25
[2]; 287, highest ratio of MIC (no compound)/MIC (MBX2319)
  MIC ratios 2319: 8
[2]; [7]
  MIC: 16 µg/mL
[3]; WT, MBX2319 0 μM, read-out: MIC (μg/ml) with MBX2319 at concn (μM) of: 0
  MIC: 4 µg/mL
[3]; WT, MBX2319 1.56 μM
  MIC (μg/ml) with MBX2319 at concn (μM) of: 1.56: 2 µg/mL
[3]; WT, MBX2319 3.13 μM
  MIC (μg/ml) with MBX2319 at concn (μM) of: 3.13: 1 µg/mL
[3]; WT, MBX2319 6.25 μM
  MIC (μg/ml) with MBX2319 at concn (μM) of: 6.25: 1 µg/mL
[3]; WT, MBX2319 25 μM
  MIC (μg/ml) with MBX2319 at concn (μM) of: 25: 0.5 µg/mL
[3]; WT, MBX2319 50 μM
  MIC (μg/ml) with MBX2319 at concn (μM) of: 50: 0.5 µg/mL
[3]; WT, MBX2319 […]
  MIC (μg/ml) with MBX2319 at concn (μM) of: 12.5: 0.5 µg/mL
[3]; WT, MIC (WT)/MIC (mutant) in the absence of EPI
  MIC ratios mutant: 1
[3]; WT, highest ratio of MIC (no compound)/MIC (MBX2319)
  MIC ratios 2319: 8
[4]; [7]
  MIC: 0.25 µg/mL
[4]; ΔacrB, MBX2319 1.56 μM
  MIC (μg/ml) with MBX2319 at concn (μM) of: 1.56: 0.125 µg/mL
[4]; ΔacrB, MBX2319 3.13 μM
  MIC (μg/ml) with MBX2319 at concn (μM) of: 3.13: 0.125 µg/mL
[4]; ΔacrB, MBX2319 6.25 μM
  MIC (μg/ml) with MBX2319 at concn (μM) of: 6.25: 0.125 µg/mL
[4]; ΔacrB, MBX2319 25 μM
  MIC (μg/ml) with MBX2319 at concn (μM) of: 25: 0.125 µg/mL
[4]; ΔacrB, MBX2319 50 μM
  MIC (μg/ml) with MBX2319 at concn (μM) of: 50: 0.125 µg/mL
[4]; ΔacrB, MBX2319 […]
  MIC (μg/ml) with MBX2319 at concn (μM) of: 12.5: 0.125 µg/mL
[4]; ΔacrB, MIC (WT)/MIC (mutant) in the absence of EPI
  MIC ratios mutant: 16
[4]; ΔacrB, highest ratio of MIC (no compound)/MIC (MBX2319)
  MIC ratios 2319: 2
[5]; [7]
  MIC: 4 µg/mL
[5]; ΔacrF, MBX2319 1.56 μM
  MIC (μg/ml) with MBX2319 at concn (μM) of: 1.56: 2 µg/mL
[5]; ΔacrF, MBX2319 3.13 μM
  MIC (μg/ml) with MBX2319 at concn (μM) of: 3.13: 1 µg/mL
[5]; ΔacrF, MBX2319 6.25 μM
  MIC (μg/ml) with MBX2319 at concn (μM) of: 6.25: 0.5 µg/mL
[5]; ΔacrF, MBX2319 25 μM
  MIC (μg/ml) with MBX2319 at concn (μM) of: 25: 0.5 µg/mL
[5]; ΔacrF, MBX2319 50 μM
  MIC (μg/ml) with MBX2319 at concn (μM) of: 50: 0.5 µg/mL
[5]; ΔacrF, MBX2319 […]
  MIC (μg/ml) with MBX2319 at concn (μM) of: 12.5: 0.5 µg/mL
[5]; ΔacrF, MIC (WT)/MIC (mutant) in the absence of EPI
  MIC ratios mutant: 1
[5]; ΔacrF, highest ratio of MIC (no compound)/MIC (MBX2319)
  MIC ratios 2319: 8
[6]; [7]
  MIC: 0.125 µg/mL
[6]; ΔtolC, MBX2319 1.56 μM
  MIC (μg/ml) with MBX2319 at concn (μM) of: 1.56: 0.125 µg/mL
[6]; ΔtolC, MBX2319 3.13 μM
  MIC (μg/ml) with MBX2319 at concn (μM) of: 3.13: 0.125 µg/mL
[6]; ΔtolC, MBX2319 6.25 μM
  MIC (μg/ml) with MBX2319 at concn (μM) of: 6.25: 0.125 µg/mL
[6]; ΔtolC, MBX2319 25 μM
  MIC (μg/ml) with MBX2319 at concn (μM) of: 25: 0.125 µg/mL
[6]; ΔtolC, MBX2319 50 μM
  MIC (μg/ml) with MBX2319 at concn (μM) of: 50: 0.125 µg/mL
[6]; ΔtolC, MBX2319 […]
  MIC (μg/ml) with MBX2319 at concn (μM) of: 12.5: 0.125 µg/mL
[6]; ΔtolC, MIC (WT)/MIC (mutant) in the absence of EPI
  MIC ratios mutant: 32
[6]; ΔtolC, highest ratio of MIC (no compound)/MIC (MBX2319)
  MIC ratios 2319: 1

## CC1(C)Cc2c(C#N)c(SCCc3ccccc3)nc(N3CCOCC3)c2CO1 [MBX2319]
[1]; E. coli strain 285
  potentiation of the antibacterial activity of CIP, LEV, and PIP: 4-8 fold
[1]; read-out: MIC (μM) MBX2319
  MIC: ≥ 100 µM
[2]; E. coli strain 287
  potentiation of the antibacterial activity of CIP, LEV, and PIP: 4-8 fold
[2]; read-out: MIC (μM) MBX2319
  MIC: ≥ 100 µM
[3]; MBX2319 alone, strain WT, read-out: MIC (μM) MBX2319
  MIC: ≥ 100 µM
[3]; checkerboard, E. coli AB1157, ciprofloxacin
  decrease of the MIC of CIP by MBX2319: 2 fold
[3]; checkerboard, E. coli AB1157, levofloxacin
  decrease of the MIC of LEV by MBX2319: 4 fold
[3]; checkerboard, E. coli AB1157, piperacillin
  decrease of the MIC of PIP by MBX2319: 8 fold
[4]; read-out: MIC (μM) MBX2319
  MIC: ≥ 100 µM
[5]; read-out: MIC (μM) MBX2319
  MIC: ≥ 100 µM
[6]; read-out: MIC (μM) MBX2319
  MIC: ≥ 100 µM

From patent publication US9540389B2, “Antimicrobial potentiators” (priority 2013, dated 2017)
